21 molecules from patent US5563142A, “Diaromatic substituted compounds as anti-HIV-1 agents” (The Upjohn Company, priority 1994, dated 1996) can be followed below.

In assay [1] the test system is HIV-1 (MT-2 cells infected with HIV-1). The assay is described as follows: Inhibition of HIV-induced syncytia formation in MT-2 cells. It is filed as cell-based. The settings on record: for IC50: Human immunodeficiency virus 1, MT2, MT-2 cells infected with HIV-1, read-out: INHIBITION OF SYNCYTIA FORMATION ED50. The source says:
This test is described in Quantitative Infectivity Assay for HIV-1 and -2., Nature 332: 469-470, 1988 as well as in AIDS RESEARCH AND HUMAN RETROVIRUSES, Vol. 4, No. 6, pages 449-455 (1988), Mary Ann Liebent, Inc., Publishers; in an article entitled "Nucleotide Dimers Suppress HIV Expression In VITRO". The results (IC50 means the concentration, in μM of drug, required to inhibit syncytia formation to the extent of 50%) of various assay(s) are combined and reported as % inhibition and IC50 (calculated).
ability of various compounds used to inhibit HIVinduced syncytia formatio
in a tissue culture assay using MT2 cells infected with HIV1. This test i
described by Nara et al., Quantitative infectivity assay for HIV1 and 2,
Nature 332, 469-470 (1988), as well as in AIDS RESEARCH AND HUMAN
RETROVIRUSES, vol. 4, No. 6, pages 449-455 (1988), Mary Ann Liebent, Inc.
Publishers, and in an article by Mariano Busso, et al., entitled
"Nucleotide Dimers Suppress HIV Expression In Vitro". The results
(ED50 means the concentration, in μM of drug, required to inhibit
syncytia formation to the extent of 50%) of various assay are combined an
reported in Table I. In comparison, the known commercial compound, AZT,
percent reductions in syncytia formation at concentrations of
approximately 1 μM and 0.5 μM, respectively.

Assay [2] concerns HIV in primary human peripheral blood lymphocytes. The assay is described as follows: Primary PBL assay: inhibition of viral replication (p24 & RNA). It is filed as cell-based. To be noted: Human immunodeficiency virus 1, Lymphocyte, primary human lymphocytes infected with HIV, days three and four, read-out: PBL INHIBITION OF VIRAL REPLICATION (p24 & RNA) ED50. Here is the method:
^3 The utility of the compounds of the invention is further
infection in primary peripheral blood lymphocytes (primary PBL assay). Th
primary PBL assay offers the following advantages:
(a) The assays are performed with primary human lymphocytes. Thereby,
undesired testing of transformed cell lines is avoided in which host cell
and virus may have undergone processes of mutual adaptation. Performance
of cell culture in serum containing media closely mimics the in vivo
situation. (b) The primary PBL assay distinguishes between true antiviral
effect which is due to the drug and cytostatic/cytotoxic reactions. (c)
Viral replication is precisely followed by kinetic measurement of viral
nucleic acids and proteins. (d) Nucleic acids (total HIVRNA intra and
extracellular) and protein (secreted p24) are measured in parallel which
permits one to differentiate between the compound's effect on virus
replication and on the expression of viral proteins. This leads to
additional information regarding the efficacy of the test compound. (e)
Tolerance of the cell culture against low amounts of organic solvents als
permits the investigation of hydrophobic substances. (f) The dose of the
drug causing half maximal suppression of virus replication is determined.
(g) The screening system is standardized and automated to a high degree.
The primary PBL assay uses the following procedure:
Effects of the compounds of the invention on cell proliferation are determined by lymphocyte proliferation assays. Starting with a 100 micromolar solution, the compound is serially diluted 10 fold. One tenth of the concentration of a compound causing half maximal inhibition of cellular proliferation is employed for all subsequent testing.
Peripheral human lymphocytes are isolated by density gradient centrifugation. After stimulation by mitogen the cells are infected with a standardized preparation of HIV. Subsequently, the infected cells are cultured in the presence of the drug for four days. Individual cultures are established to measure viral replication three and four days following infection. Untreated cells and AZT-treated cells are included as controls in parallel with the drugs under investigation.
The amount of viral core protein p24 synthesized and release by the infected cells is determined in the supernatant by the capture-ELISA technique on days three and four. By comparing with a standard preparation, the amount of protein produced by the virus infected cells is quantified.
The total amount of viral RNA synthesized by the infected lymphocytes is determined by a special nucleic acid hybridization on days three and four of culture. By including a standard preparation of HIV-RNA the amount of synthesized RNA is quantified.
In addition, viability of HIV-infected cells is determined in parallel with assays for viral p24 and RNA. In order to evaluate the half maximal antiviral effect of the drug, a concentration dependency of the drug action is measured.
Numerous examples of the compounds of the invention are assayed according to this procedure. The anti-HIV activity, as measured by the inhibition of the release of core p24 protein in HIV infected human lymphocytes, is used to calculate ED50 -antiviral (the concentration required to give a 50% reduction in p24 synthesis).

For assay [3], the target named is T1, viral reverse transcriptase (Human immunodeficiency virus type 1 group M subtype B, UniProt P04585).
T1 construct: Viral reverse transcriptase is found in extracts from bacterial clones; made in house; host or cells: Escherichia coli (extracts of bacterial clones, by the procedure of Larder et al., EMBO J. 6:3133-3137, 1987)
The experiment in a line: Viral reverse transcriptase inhibition, cell free assay. It is filed as biochemical, human immunodeficiency virus (HIV-1). In outline: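 E. coli-expressed HIV-1 RT extract was incubated with inhibitor, 10 μM [35S]-dNTP, poly rC/rG template and oligo dG/dT primer in Tris pH 8.3 with Mg2+ at 37 °C (30 min; 15 min in an alternative version). DNA incorporation was counted on filters and reported as % inhibition (at 100 μM in one version) and IC50.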

The mark [4] stands for this setting: read-out: RT % INHIBITION (100 μM), 100 μM, poly rC or poly rG template.

Counter-ions that a name gives are not always drawn. Like-named read-outs stand apart in the source and are kept apart here.

For the molecule `Cc1cn([C@H]2C[C@H](N=[N+]=[N-])[C@@H](CO)O2)c(=O)[nH]c1=O` [AZT, 3'-azido-3'-deoxy-thymidine, reference compound], in assay [1] (Human immunodeficiency virus 1, MT2, read-out: concentration giving 50 percent reduction in syncytia formation), the EC50 was ~500 nM. Also, the IC100 in assay [1] (Human immunodeficiency virus 1, MT2, read-out: concentration giving 100 percent reduction in syncytia formation) is ~1 µM.
For orientation: inhibition means the relative decrease from the control value, in per cent. For the molecule `CCNc1cccnc1N1CCN(C(=O)c2cc(C)c(OC)c(C)c2)CC1` [Example 1, 1-[4-Methoxy-3,5-dimethylbenzoyl]-4-[3-(ethylamino)-2-pyridinyl]piperazine], the IC50 in assay [1] stood at 10000 nM. Also, the EC50 in assay [2] was determined as 1000 nM. For the same molecule, the inhibition at 100 µM in assay [3] (setting [4]) is 60 to 79%.
Turning to `CCNc1cccnc1N1CCN(Cc2cc(C)c(OC)c(C)c2)CC1` [Example 3, 1-[4-Methoxy-3,5-dimethylbenzyl]-4-[3-(ethylamino)-2-pyridinyl]piperazine], the IC50 in assay [1] lay in the range of 1000 to 2500 nM. In addition, the EC50 in assay [2] was 1000 nM. The inhibition at 100 µM in assay [3] (setting [4]) lay within 70 to 76%.
The like results for `CCNc1cccnc1N1CCN(Cc2cc(C)c(O)c(C)c2)CC1` [Example 4, 1-[4-Hydroxy-3,5-dimethylbenzyl]-4-[3-(ethylamino)-2-pyridinyl]piperazine] were, in that order, 2500 nM, ≥ 10000 nM and 58%.
On to `CCCNc1cccnc1N1CCN(Cc2cc(C)c(OC)c(C)c2)CC1` [Example 5, 1-[4-Methoxy-3,5-dimethylbenzyl]-4-[3-(propylamino)-2-pyridinyl]-piperazine], for which the IC50 in assay [1] worked out at 2000 nM. For the same molecule, the inhibition at 100 µM in assay [3] (setting [4]) was in the range of 39 to 42%.
With `CCOc1ccccc1N1CCN(C(=O)c2cc3ccccc3[nH]2)CC1` [Example 10, 1-[Indolyl-2-carbonyl]-4-[2-ethoxyphenyl]piperazine], in assay [1], the IC50 was 5000 nM. The EC50 in assay [2] was > 1000 nM. Moreover, the inhibition at 100 µM in assay [3] (setting [4]) lay in the range of 72 to 87%.
In the same order, the values of `CCNc1cccnc1N1CCN(C(=O)c2cc3ccccc3[nH]2)CC1` [Example 11, 1-[Indolyl-2-carbonyl]-4-[3-(ethylamino)-2-pyridinyl]piperazine] are 300 to 3000 nM, 10 to 100 nM and 95 to 98%.
In the same order, the values of `CCOc1ccccc1N1CCN(C(=O)c2cc3cc(OC)ccc3[nH]2)CC1` [Example 12, 1-[5-Methoxyindolyl-2-carbonyl]-4-[2-ethoxyphenyl]piperazine] are < 300 nM, 5000 to 10000 nM and 64 to 80%.
As for `CCNc1cccnc1N1CCN(C(=O)c2cc3cc(OC)ccc3[nH]2)CC1` [Example 16A, 1-[5-Methoxyindolyl-2-carbonyl]-4-[3-(ethylamino)-2-pyridinyl]-piperazine, hydrochloride], the IC50 in assay [1] is < 200 nM. Further, the EC50 in assay [2] is 1 nM.
On to `CC(C)Nc1cccnc1N1CCN(C(=O)c2cc3ccccc3[nH]2)CC1` [Example 17, 1-[Indolyl-2-carbonyl]-4-[3-(1-methylethylamino)-2-pyridinyl]piperazine], for which, in assay [1], the IC50 was ≤ 300 nM. The EC50 in assay [2] was ≤ 10 nM. Besides, in assay [3] (setting [4]), the inhibition at 100 µM is 96%.
In the same order, the values of `CCN(CC)c1cccnc1N1CCN(C(=O)c2cc3ccccc3[nH]2)CC1` [Example 19, 1-[Indolyl-2-carbonyl]-4-[3-(N,N-diethylamino)-2-pyridinyl]-piperazine] are 3000 nM, 100 to 1000 nM and 65 to 71%.
The like results for `CCNc1cccnc1N1CCN(Cc2cc3ccccc3[nH]2)CC1` [Example 20, 1-[Indolyl-2-methyl]-4-[3-(ethylamino)-2-pyridinyl]piperazine] were, in that order, 10000 nM, 1000 nM and 64%.
The like results for `CCCNc1cccnc1N1CCN(C(=O)c2cc3cc(F)ccc3[nH]2)CC1` [Example 21, 1-[5-Fluoroindolyl-2-carbonyl]-4-[3-(propylamino)-2-pyridinyl]piperazine] were, in that order, 1000 nM, 10 to 1000 nM and 44 to 74%.
Consider `CCNc1cccnc1N1CCN(C(=O)c2cc3cc(Cl)ccc3[nH]2)CC1` [Example 22, 1-[5-Chloroindolyl-2-carbonyl]-4-[3-(ethylamino)-2-pyridinyl]piprazine], for which the IC50 in assay [1] fell in the range of 300 to 5000 nM. Moreover, the EC50 in assay [2] was 10 nM. Moreover, the inhibition at 100 µM in assay [3] (setting [4]) was in the range of 76 to 82%.
In the case of `CCNc1cccnc1N1CCN(C(=O)c2cc3cc(F)ccc3[nH]2)CC1` [Example 23, 1-[5-Fluoroindolyl-2-carbonyl]4-[3-(ethylamino)-2-pyridinyl]-piperazine], in assay [1], the IC50 is < 300 nM. The EC50 in assay [2] was 3 to 10 nM. For the same molecule, in assay [3] (setting [4]), the inhibition at 100 µM lay in the range of 92 to 95%.
In the same order, the values of `CCNc1cccnc1N1CCN(C(=O)c2cc3cc(CC)ccc3[nH]2)CC1` [Example 24, 1-[5-Ethylindolyl-2-carbonyl]-4-[3-(ethylamino)-2-pyridinyl]piperazine] are 16000 nM, 10 to 100 nM and 65 to 70%.
As for `CC(C)Nc1cccnc1N1CCN(C(=O)c2cc3cc(NS(C)(=O)=O)ccc3[nH]2)CC1` [Example 105, 1-[5-Methanesulfonamidoindolyl-2-carbonyl]-4-[3-(1-methylethylamino)-2-pyridinyl]piperazine], the EC50 in assay [2] is ≤ 1 nM. In addition, the inhibition at 100 µM in assay [3] (read-out: RT % INHIBITION (100 μM)) was 82 to 96%.
For `COCC(C)Nc1cccnc1N1CCN(C(=O)c2cc3cc(F)ccc3[nH]2)CC1` (stereo not shown) [Example 106, 1-[5-Fluoroindolyl-2-carbonyl]-4-[3-(2-methoxy-1-methylethylamino)-2-pyridinyl]piperazine], in assay [2], the EC50 is ≤ 1 nM. The inhibition at 100 µM in assay [3] (setting [4]) lay in the range of 76 to 81%.
The like results for `C=CCNc1cccnc1N1CCN(Cc2cc(C)c(OC)c(C)c2)CC1` [Example 116, 1-[4-Methoxy-3,4-dimethylbenzyl]-4-(3-(2-propenylamino)-2-pyridinyl]piperazine, hydrochloride] were, in that order, < 10000 nM and 45 to 52%.
For the molecule `CC(C)Nc1cccnc1N(C)CCCCN(C)C(=O)c1cc2ccccc2[nH]1` [Example 124, N,N'-Dimethyl-N-(indolyl-2-carbonyl)-N'-[3-(1-methylethyl-amino)-2-pyridyl]-1,4-butanediamine], in assay [2], the EC50 was > 100 nM. Besides, the inhibition at 100 µM in assay [3] (setting [4]) turned out to be 95%.
On to `CC(C)Nc1cccnc1N1CCN(C(=O)c2cc3ccc(F)cc3[nH]2)CC1` [Example 132], for which the EC50 in assay [2] was in the range of 1 to 10 nM. In addition, the inhibition at 100 µM in assay [3] (setting [4]) fell in the range of 95 to 98%.
